Columns and labels:
[1] = test system: osteoblastic cells derived from murine calvaria; assay: Etoposide-induced apoptosis of osteoblastic cells derived from murine calvaria (trypan blue uptake); type: cell-based; conditions: for Lowest Effective Concentration: inhibition of etoposide-induced osteoblast apoptosis, 1 hour pretreatment, trypan blue after 6 hours; for Suppression by 10^−8 M Flutamide: suppression of the anti-apoptotic effect by the androgen receptor antagonist flutamide; for Anti-apoptotic effect on osteoblastic cells after ICI182,780: compound 10^−8 M, 1 h pretreatment with ICI182,780 10^−7 M
Description: Osteoblastic cells derived from murine calvaria were pretreated with the sterols for 1 hour before the addition of the pro-apoptotic agent, etoposide. Apoptosis was determined after 6 hours by trypan blue uptake (Jilka et al, J. Bone and Min. Res. 13:793:802, 1998). * indicates p<0.05 versus etoposide alone, by analysis of variance (ANOVA) (Student-Newman-Keuls method).
Osteoblastic cells derived from murine calvaria were pretreated for 1 hour with the pure receptor antagonist ICI182,780 (10^−7 M) before the addition of the test agents (10^−8 M). Apoptosis was induced and quantified as described in FIG. 3. * indicates p<0.05 versus etoposide alone, by ANOVA (Student-Newman-Keuls method).
In this experiment, osteoblastic cells were derived from murine calvaria and were pretreated with the sterols for 1 hour before the addition of the pro-apoptotic agent, etoposide.
In these experiments, cells were pretreated with the indicated concentrations of the various compounds for 1 hour, in the absence or presence of the androgen receptor antagonist flutamide, before the addition of the proapoptotic agent etoposide. Apoptosis was determined after 6 hours by trypan blue uptake as described in FIG. 3.

[2] = for at least four years; cited from earlier work
[3] = test system: MLO-Y4 osteocytic cells; assay: Etoposide-induced apoptosis of MLO-Y4 osteocytic cells (trypan blue uptake); type: cell-based, murine; conditions: for Inhibition of etoposide-induced apoptosis of osteocytic cell line: 1 h pretreatment before etoposide, trypan blue after 6 h; for Antiapoptotic effect on osteocytes after ICI182,780: 1 h pretreatment with ICI182,780 10^−7 M
Description: Cells were pretreated with the indicated concentrations of the compounds for 1 hour before the addition of the pro-apoptotic agent etoposide. Apoptosis was determined after 6 hour by trypan blue uptake as described in FIG. 3. * indicates p<0.05 versus etoposide alone, by ANOVA (Student-Newman-Keuls method).
MLO-Y4 cells were pretreated for 1 hour with the pure receptor antagonist ICI182,780 (10^−7 M) before the addition of the test agents (10^−8 M). Apoptosis was induced and quantified as described in FIG. 3. * indicates p<0.05 versus etoposide alone, by ANOVA (Student-Newman-Keuls method).
In this experiment, MLO-Y4 cells were pretreated with the indicated concentrations of the various compounds for 1 h before the addition of the pro-apoptotic agent, etoposide. Apoptosis was determined after 6 h by trypan blue uptake as described in FIG. 3.

[4] = test system: wild type HeLa cells; assay: Etoposide-induced apoptosis of wild type HeLa cells; type: cell-based, human; conditions: compound 10^−8 M 1 h, etoposide 5×10^−5 M 6 hour
Excerpt: CMV promoter alone and CMV promoter-driven cDNA for mERα or mErβ were stably transfected into HeLa cells. […] Cells were trypsinized, pelleted and trypan blue positive cells enumerated. Each bar represents mean of duplicate experiments ±SEM. *P<0.02 versus etoposide alone.
(§1) In this experiment, instead of calvaria cells, human HeLa cells which contain undetectable, if any, estrogen receptor were used. HeLa cells were stably transfected with either a CMV promoter-driven cDNA for the murine estrogen receptor-alpha (mERα) or a CMV promoter-driven cDNA for the murine estrogen receptor-beta (mERβ). […] Cells were trypsinized, pelleted and trypan blue positive cells were enumerated.

[5] = test system: HeLa cells transfected with the estrogen receptor α (mERα); assay: Etoposide-induced apoptosis of HeLa cells stably transfected with mERα; type: cell-based, human; conditions: compound 10^−8 M 1 h, etoposide 5×10^−5 M 6 hour
Excerpt: (§2) CMV promoter alone and CMV promoter-driven cDNA for mERα or mErβ were stably transfected into HeLa cells. […] Cells were trypsinized, pelleted and trypan blue positive cells enumerated.
as §1

[6] = test system: HeLa cells transfected with estrogen receptor β (mERβ); assay: Etoposide-induced apoptosis of HeLa cells stably transfected with mERβ; type: cell-based, human; conditions: compound 10^−8 M 1 h, etoposide 5×10^−5 M 6 hour
Excerpt: as §2, §1

[7] = test system: extracellular signal regulated kinases (ERKs) 1 and 2; assay: Western blot of phosphorylated ERK1/2 in MLO-Y4 osteocytic cells; type: cell-based, murine; conditions: for Activation of ERKs (phosphorylated fraction of ERK1/2): 10^−8 M, 5, 15 or 30 minutes; for Ability to activate ERKs in the presence of PD98059: compound 10^−8 M, 5 minutes, 50 μM PD98059
Description: (§3) MLO-Y4 osteocytic cells were incubated for 25 minutes in serum-free medium. […] Cell lysates were prepared and proteins were separated by electrophoresis in polyacrylamide gels and transferred to PVDF membranes. Western blotting was performed using a specific antibody recognizing phosphorylated ERKs 1 and 2, followed by reblotting with an antibody recognizing total ERKs. Blots were developed by enhanced chemiluminescence.
as §3, with “MLO-Y4” for “MLO-Y4 osteocytic”, “medium in the presence or absence of 50 μM PD98059.” for “medium.”
as §3, with “In this experiment, MLO-Y4” for “MLO-Y4”, “extracellular signal regulated kinases” for “ERKs”, “extracellular signal regulated kinases.” for “ERKs.”, “chemiluminescence. […] This effect is too rapid to be accounted for by the classical mechanism of estrogen action.” for “chemiluminescence.”
as §3, with “In this experiment, MLO-Y4” for “MLO-Y4”, “medium in the presence or absence of 50 μM PD98059.” for “medium.”, “extracellular signal regulated kinases” for “ERKs”, “extracellular signal regulated kinases.” for “ERKs.”

[8] = test system: MLO-Y4 osteocytic cells; assay: Dexamethasone-induced apoptosis of MLO-Y4 osteocytic cells with PD98059; type: cell-based, murine; conditions: compound 10^−8 M; PD98059 1 hour; dexamethasone 6 hours
Description: Apoptosis was induced by incubation with the pro-apoptotic agent dexamethasone for 6 hour and quantified as described in FIG. 3. * indicates p<0.05 versus the corresponding control group without dexamethasone, by ANOVA (Student-Newman-Keuls method).
That indeed the anti-apoptotic effect of all the compounds tested herein was mediated via activation of ERKs was established by the results of the experiments shown in FIG. 10. […] Apoptosis was induced by incubation with the pro-apoptotic agent dexamethasone for 6 hours and quantified as described in FIG. 3.

[9] = rats, intravenously; cited from earlier work
[10] = human iliac trabecular bone, after one year of treatment; cited from earlier work
[11] = test system: osteoclasts; conditions: increased from approximately 0.5%; cited from earlier work
[12] = test system: osteoblasts; conditions: intermittent administration in mice; decreased from 1.7-2.2%; cited from earlier work

C[C@]12CC[C@H]3[C@@H](CCC4=CC(=O)CC[C@@]43C)[C@@H]1CC[C@@H]2O [Testosterone]
Lowest Effective Concentration [1]: 10^−9 M | Suppression by 10^−8 M Flutamide [1]: yes

[F-].[Na+] [sodium fluoride]
Increase of vertebral bone mass [2]: 10 % a year

C[C@]1(O)CC[C@H]2[C@@H]3CCC4=CC(=O)CCC4=C3C=C[C@@]21C [RU1881]
Lowest Effective Concentration [1]: 10^−8 M | Suppression by 10^−8 M Flutamide [1]: yes

C[C@]12CC[C@@H]3c4ccc(O)cc4CC[C@H]3[C@@H]1CC[C@H]2O [17α-estradiol]
Anti-apoptotic effect on osteoblastic cells after ICI182,780 [1]: abrogated | Inhibition of etoposide-induced apoptosis of osteocytic cell line [3]: dose-dependently inhibited | Antiapoptotic effect on osteocytes after ICI182,780 [3]: abrogated | Effect on etoposide-induced apoptosis [4]: none of the three compounds had any effect | Effect on etoposide-induced apoptosis [5]: potently inhibited | Effect on etoposide-induced apoptosis [6]: potently inhibited | Activation of ERKs (phosphorylated fraction of ERK1/2) [7]: activated | Ability to activate ERKs in the presence of PD98059 [7]: abrogated | Anti-apoptotic effect after PD98059 pretreatment [8]: prevented the anti-apoptotic effect

C[C@]12CCC(=O)C[C@@H]1CC[C@@H]1[C@@H]2CC[C@]2(C)[C@@H](O)CC[C@@H]12 [5-β-dihydrotestosterone]
Lowest Effective Concentration [1]: 10^−10 M | Suppression by 10^−8 M Flutamide [1]: yes

C[C@]12CC[C@H](OS(=O)(=O)O)CC1=CC[C@@H]1[C@@H]2CC[C@]2(C)C(=O)CC[C@@H]12 [Dehydroisoandrosterone-3-sulfate (DHES), Dehydroisoandrosterone-3-sulfate]
Lowest Effective Concentration [1]: 10^−8 M | Suppression by 10^−8 M Flutamide [1]: no*

CC(=O)N[C@@H](CS)C(=O)O [N-acetylcysteine, acetamido-mercaptopropionic acid]
LD50 [9]: 1140 mg/kg

C[C@]12CCC(=O)C[C@@H]1CC[C@@H]1[C@@H]2CC[C@]2(C)[C@@H](O)CC[C@@H]12 [5-α-dihydrotestosterone]
Lowest Effective Concentration [1]: 10^−9 M | Suppression by 10^−8 M Flutamide [1]: yes

C[C@]12CC[C@H]3[C@@H](CC=C4C[C@@H](O)CC[C@@]43C)[C@@H]1CC[C@@H]2O [5-androstene-3β-17_-diol]
Lowest Effective Concentration [1]: 10^−8 M | Suppression by 10^−8 M Flutamide [1]: yes

CC(O)(P(=O)(O)O)P(=O)(O)O [etidronate]
Reduction of resorption depth [10]: ~30%

C[C@]12CCC(=O)C=C1CC[C@@H]1[C@@H]2CC[C@]2(C)C(=O)CC[C@@H]12 [4-androstene-3,17-dione]
Lowest Effective Concentration [1]: 10^−8 M | Suppression by 10^−8 M Flutamide [1]: yes

C[C@]12CC[C@@H]3c4ccc(O)cc4CC[C@H]3[C@@H]1CC[C@@H]2O [17β-estradiol, reference compound]
Inhibition of etoposide-induced osteoblast apoptosis ([1]; 1 hour pretreatment before etoposide): prevented apoptosis of osteoblastic cells isolated from murine calvaria, in a dose dependent manner | Anti-apoptotic effect on osteoblastic cells after ICI182,780 [1]: abrogated | Inhibition of etoposide-induced apoptosis of osteocytic cell line [3]: dose-dependently inhibited | Antiapoptotic effect on osteocytes after ICI182,780 [3]: abrogated | Effect on etoposide-induced apoptosis [4]: none of the three compounds had any effect | Effect on etoposide-induced apoptosis [5]: potently inhibited | Effect on etoposide-induced apoptosis [6]: potently inhibited | Activation of ERKs (phosphorylated fraction of ERK1/2) [7]: activated | Ability to activate ERKs in the presence of PD98059 [7]: abrogated | Anti-apoptotic effect after PD98059 pretreatment [8]: prevented the anti-apoptotic effect | Apoptosis of osteoclasts [11]: ≤ 2.7%

B1: PTH: parathyroid hormone, an agent known for its role in calcium homeostasis (protein, UniProt P01270 32-115, looked up)
Parathyroid hormone: SVSEIQLMHNLGKHLNSMERVEWLRKKLQDVHNFVALGAPLAPRDAGSQRPRKKEDNVLVESHEKSLGEADKADVNVLTKAKSQ
modifications: Parathyroid hormone
notes: parathyroid hormone, an agent known for its role in calcium homeostasis
Prevalence of osteoblast apoptosis [12]: 0.1-0.4%
